The values below come from US8859574B2 (IRM LLC, priority 2008, dated 2014).

A word on the IC50: it is the point on the concentration scale where inhibition reaches its midpoint. Lower therefore signals greater potency.

T1 sequence (P08069 999-1274 limits assumed): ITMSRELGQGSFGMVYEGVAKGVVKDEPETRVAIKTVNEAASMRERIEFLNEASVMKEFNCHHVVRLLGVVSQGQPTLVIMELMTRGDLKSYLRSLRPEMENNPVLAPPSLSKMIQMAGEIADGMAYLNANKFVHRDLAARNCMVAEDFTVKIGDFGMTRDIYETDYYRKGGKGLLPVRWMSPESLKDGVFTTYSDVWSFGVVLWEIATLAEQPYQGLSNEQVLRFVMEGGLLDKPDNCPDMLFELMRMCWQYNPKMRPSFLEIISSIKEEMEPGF

The experiment concerns the target T1, IGF-1R Ba/F3 (Homo sapiens, UniProt P08069).
T1 construct: fused on or other part: TEL- (or BCR-) IGF-1R in Ba/F3: the kinase part holds the site
Put plainly: Ba/F3 Cell Viability Inhibition Assay (IGF-1R Ba/F3). It is filed as cell-based, murine. As to conditions: Tel-TK transformed Ba/F3 cells, 48 hours, Britelite luminescence. The source says: The IC50 of a drug may be determined constructing a dose-response curve and examining the effect of different concentrations of antagonist on reversing agonist activity. IC50 values may be calculated for a given antagonist by determining the concentration needed to inhibit half of the maximum biological response of the agonist. To calculate IC50 values, a series of dose-response data (e.g., drug concentrations x1, x2, . . . , xn and growth inhibition y1, y2, . . . , yn, the values of y are in the range of 0-1) is generated. IC50 values may be determined by a computer-aided system using the formula: y=D+((A−D)/(1+10^(x-log(IC50)B) • where A is the ratio of growth inhibition between lowest drug concentration and control; B is the slope of sigmoidal curvel; and D is the ratio of growth inhibition between highest drug concentration and control.
Ba/F3 is a murine IL-3-dependent pro-B lymphoma cell line. Parental Ba/F3 cells are used to generate a panel of sublines whose proliferation and survival is rendered IL-3-independent by stable transduction with individual tyrosine kinases activated by fusion with the amino-terminal portion of TEL (amino acid 1-375) or BCR. In order to generate Ba/F3 cell lines transformed by Tel-Tyrosine Kinase (TK) fusions, parental Ba/F3 cells are infected with a retrovirus harboring each TEL-fusion kinase and subjected to puromycin selection and IL-3 withdrawal to obtain IL-3-independent, transformed Ba/F3 cells.
Each transformed Ba/F3 cells are cultured in RPMI-1640 media (Gibco Cat #11875093, Carlsbad, Calif.) supplemented with 10% FBS (Hyclone Cat #SV30014.03, Logan, Utah), 4.5 g/L glucose (Sigma #G5400, St. Louis, Mo.), 1.5 g/L sodium bicarbonate (Biowhittaker #17-613E, Walkersville, Md.) and Pen/Strep (Gibco #10378-016, Carlsbad, Calif.). Cells are splitted twice weekly.
The potency of test compounds against various Tel-TK transformed Ba/F3 lines is determined as follows. Exponentially growing BaF3 Tel-TK cells are diluted in fresh medium to 75,000 cells/mL and seeded into 384-well plates (3750 cells/well) at 50 μL/well using a μFill liquid dispenser (BioTek, Winooski, Vt., USA). Duplicate plates are run for each cell line. Test and control compounds are serially diluted with DMSO and arrayed in a polypropylene 384-well plate. […] of compound is transferred into the assay plates using a pin-transfer device, and the plates are incubated at 37° C. (5% CO2) for 48 hours. 25 μL Britelite (Perkin Elmer) is added and luminescence is quantified using Analyst GT (Molecular Devices). Custom curve-fitting software is used to produce a logistic fit of percent cell viability as a function of the logarithm of inhibitor concentration. The IC50 is interpolated as the concentration of compound needed to reduce cell viability to 50% of a DMSO control. Parental Ba/F3 cells that are maintained and cultured in presence of IL-3 (1 ng/ml in final) are diluted in fresh medium containing IL-3 (1 ng/ml in final) to 75,000 cells/mL following the same procedure as described above.
`Cc1cc(Nc2nc(Nc3cc(C)c(C4CCN(S(C)(=O)=O)CC4)cc3F)ncc2Cl)n[nH]1` [Compound 62, 5-Chloro-N2-(2-fluoro-5-methyl-4-(1-(methylsulfonyl)piperidin-4-yl)phenyl)-N4-(5-methyl-1H-pyrazol-3-yl)pyrimidine-2,4-diamine] yielded an IC50 of 5 nM. This counts as single-digit nanomolar. Molecule `CCC(C(=O)NC)N1CCC(c2cc(C)c(Nc3ncc(Cl)c(Nc4cc(C)[nH]n4)n3)cc2C)CC1` (stereo not shown) [Compound 189, 2-(4-(4-(5-chloro-4-(5-methyl-1H-pyrazol-3-ylamino)pyrimidin-2-ylamino)-2,5-dimethylphenyl)piperidin-1-yl)-N-methylbutanamide] returned an IC50 of 7 nM.

`Cc1cc(Nc2ncc(Cl)c(Nc3cc(C4CC4)[nH]n3)n2)c(F)cc1C1CCNCC1` [Compound 17, 5-chloro-N4-(5-cyclopropyl-1H-pyrazol-3-yl)-N2-(2-fluoro-5-methyl-4-(piperidin-4-yl)phenyl)pyrimidine-2,4-diamine] showed a 50% inhibitory concentration (IC50) of 160 nM. Consider `Cc1cc(Nc2nc(Nc3cc(C)c(C4CCN(C(=O)[C@H]5CCCN5C)CC4)cc3C)ncc2Cl)n[nH]1` [Compound 133, (R)-(4-(4-(5-chloro-4-(5-methyl-1H-pyrazol-3-ylamino)pyrimidin-2-ylamino)-2,5-dimethylphenyl)piperidin-1-yl)(1-methylpyrrolidin-2-yl)methanone], for which the IC50 amounted to 13 nM. In the case of `Cc1cc(Nc2nc(Nc3cc(C)c(C4CCCCN4C[C@H](O)C(F)(F)F)cc3C)ncc2Cl)n[nH]1` (stereo partly drawn) [Compound 197, (2S)-3-(2-(4-(5-chloro-4-(5-methyl-1H-pyrazol-3-ylamino)pyrimidin-2-ylamino)-2,5-dimethylphenyl)piperidin-1-yl)-1,1,1-trifluoropropan-2-ol], the IC50 is 210 nM.

With `Cc1cc(Nc2nc(Nc3cc(C)c(C4CCCN(C(=O)CN(C)C)C4)cc3C)ncc2Cl)n[nH]1` (stereo not shown) [Compound 180, 1-(3-(4-(5-chloro-4-(5-methyl-1H-pyrazol-3-ylamino)pyrimidin-2-ylamino)-2,5-dimethylphenyl)piperidin-1-yl)-2-(dimethylamino)ethanone], inhibition was half-maximal at 25 nM (IC50). In the case of `Cc1cc(Nc2nc(Nc3cc(C)c(C4CCN(CCC(N)=O)CC4)cc3F)ncc2Cl)n[nH]1` [Compound 248, 3-(4-(4-(5-chloro-4-(5-methyl-1H-pyrazol-3-ylamino)pyrimidin-2-ylamino)-5-fluoro-2-methylphenyl)piperidin-1-yl)propanamide], the IC50 was 140 nM. This IC50 is about 5.6-fold higher than that of the molecule before. `Cc1cc(Nc2nc(Nc3cc(C)c(C4CCN(Cc5ccnnc5)CC4)cc3C)ncc2Cl)n[nH]1` [Compound 21, 5-chloro-N2-(2,5-dimethyl-4-(1-(pyridazin-4-ylmethyl)piperidin-4-yl)phenyl)-N4-(5-methyl-1H-pyrazol-3-yl)pyrimidine-2,4-diamine] gave an IC50 of 2 nM. In the case of `Cc1cc(Nc2nc(Nc3cc(C)c(C4CCCN(CC(N)=O)C4)cc3C)ncc2Cl)n[nH]1` (stereo not shown) [Compound 41, 2-(3-(4-(5-chloro-4-(5-methyl-1H-pyrazol-3-ylamino)pyrimidin-2-ylamino)-2,5-dimethylphenyl)piperidin-1-yl)acetamide] it was 26 nM; in that of `Cc1cc(C2CCN(C(=O)C3(N)CC3)CC2)c(C)cc1Nc1ncc(Cl)c(Nc2cc(C3CC3)[nH]n2)n1` [Compound 188, (1-aminocyclopropyl)(4-(4-(5-chloro-4-(5-cyclopropyl-1H-pyrazol-3-ylamino)pyrimidin-2-ylamino)-2,5-dimethylphenyl)piperidin-1-yl)methanone], 19 nM. Molecule `Cc1cc(Nc2nc(Nc3cc(C)c(C4CCN(C(C)C(N)=O)CC4)cc3C)ncc2Cl)n[nH]1` (stereo not shown) [Compound 51, 2-(4-(4-(5-chloro-4-(5-methyl-1H-pyrazol-3-ylamino)pyrimidin-2-ylamino)-2,5-dimethylphenyl)piperidin-1-yl)propanamide] returned an IC50 of 9 nM. In turn, `Cc1cc(Nc2nc(Nc3cc(C4CCN(CC(O)C(F)(F)F)CC4)c(F)cc3C)ncc2Cl)n[nH]1` (stereo not shown) [Compound 31, 3-(4-(5-(5-chloro-4-(5-methyl-1H-pyrazol-3-ylamino)pyrimidin-2-ylamino)-2-fluoro-4-methylphenyl)piperidin-1-yl)-1,1,1-trifluoropropan-2-ol] had an IC50 of 6470 nM. Against the preceding molecule, the IC50 is about 720-fold higher.

As to `CNC(C)(C)C(=O)N1CCC(c2cc(F)c(Nc3ncc(Cl)c(Nc4cc(C)[nH]n4)n3)cc2C)CC1` [Compound 87, 1-(4-(4-(5-chloro-4-(5-methyl-1H-pyrazol-3-ylamino)pyrimidin-2-ylamino)-5-fluoro-2-methylphenyl)piperidin-1-yl)-2-methyl-2-(methylamino)propan-1-one], the IC50 turned out to be 17 nM. As for `Cc1cc(Nc2nc(Nc3cc(C)c(C4CCN(C(=O)[C@H]5CCCN5C)CC4)cc3F)ncc2Cl)n[nH]1` [Compound 134, (R)-(4-(4-(5-chloro-4-(5-methyl-1H-pyrazol-3-ylamino)pyrimidin-2-ylamino)-5-fluoro-2-methylphenyl)piperidin-1-yl)(1-methylpyrrolidin-2-yl)methanone], half-maximal inhibition (IC50) required 21 nM. With `Cc1cc(Nc2nc(Nc3cc(C)c(C4CCN(C(=O)[C@H]5C[C@@H](O)CN5C)CC4)cc3C)ncc2Cl)n[nH]1` [Compound 123, (4-(4-(5-chloro-4-(5-methyl-1H-pyrazol-3-ylamino)pyrimidin-2-ylamino)-2,5-dimethylphenyl)piperidin-1-yl)((2R,4R)-4-hydroxy-1-methylpyrrolidin-2-yl)methanone] the figure was 48 nM; with `CCOC(=O)N1CCC(c2cc(C)c(Nc3ncc(Cl)c(Nc4cc(C)[nH]n4)n3)cc2C)CC1` [Compound 162, ethyl 4-(4-(5-chloro-4-(5-methyl-1H-pyrazol-3-ylamino)pyrimidin-2-ylamino)-2,5-dimethylphenyl)piperidine-1-carboxylate], 13 nM.

As for `Cc1cc(Nc2nc(Nc3cc(C)c(C4CCNCC4)cc3C)ncc2C)n[nH]1` [Compound 178, N2-(2,5-dimethyl-4-(piperidin-4-yl)phenyl)-5-methyl-N4-(5-methyl-1H-pyrazol-3-yl)pyrimidine-2,4-diamine], half-maximal inhibition (IC50) required 3230 nM. `Cc1cc(Nc2nc(Nc3cc(C)c(C4CCN(C5CCNC5)CC4)cc3F)ncc2Cl)n[nH]1` (stereo not shown) [Compound 299, 5-chloro-N2-(2-fluoro-5-methyl-4-(1-(pyrrolidin-3-yl)piperidin-4-yl)phenyl)-N4-(5-methyl-1H-pyrazol-3-yl)pyrimidine-2,4-diamine] displayed an IC50 of 101 nM. With `CCNC1(C(=O)N2CCC(c3cc(C)c(Nc4ncc(Cl)c(Nc5cc(C)[nH]n5)n4)cc3C)CC2)CC1` [Compound 170, (4-(4-(5-chloro-4-(5-methyl-1H-pyrazol-3-ylamino)pyrimidin-2-ylamino)-2,5-dimethylphenyl)piperidin-1-yl)(1-(ethylamino)cyclopropyl)methanone] the figure was 3 nM. Molecule `Cc1cc(Nc2nc(Nc3cc(C)c(C4CCN(C(=O)CCCN5CCOCC5)CC4)cc3C)ncc2Cl)n[nH]1` [Compound 224, 1-(4-(4-(5-Chloro-4-(5-methyl-1H-pyrazol-3-ylamino)pyrimidin-2-ylamino)-2,5-dimethylphenyl)piperidin-1-yl)-4-morpholinobutan-1-one] displayed an IC50 of 20 nM. For the molecule `Cc1cc(Nc2nc(Nc3cc(C)c(C4CCCN(C[C@H](O)C(F)(F)F)C4)cc3C)ncc2Cl)n[nH]1` (stereo partly drawn) [Compound 201, (2S)-3-(3-(4-(5-chloro-4-(5-methyl-1H-pyrazol-3-ylamino)pyrimidin-2-ylamino)-2,5-dimethylphenyl)piperidin-1-yl)-1,1,1-trifluoropropan-2-ol], the IC50 was 46 nM. Against the preceding molecule, the IC50 is about 2.3-fold higher.

`Cc1cc(Nc2ncc(Cl)c(Nc3cc(C(F)(F)F)[nH]n3)n2)c(F)cc1C1CCNCC1` [Compound 171, 5-chloro-N2-(2-fluoro-5-methyl-4-(piperidin-4-yl)phenyl)-N4-(5-(trifluoromethyl)-1H-pyrazol-3-yl)pyrimidine-2,4-diamine] yielded an IC50 of 67 nM.
